A short description of data set [1]: Quantum yields of photoinduced CH3CN ligand exchange in H2O (Example 12). The data set is classed as physicochemical. As to conditions: for quantum yield, first CH3CN ligand exchange (Φ500) / quantum yield, first CH3CN ligand exchange (Φ550): H2O; for quantum yield, first CH3CN ligand exchange (Φ500): 500 nm irradiation. Here is the method: The quantum yields (Φ) for photoinduced ligand exchange of the first CH3CN in H2O were measured for complexes 12.1 and 12.3 with 500 nm and 550 nm irradiation wavelengths using the appropriate bandpass filters. The moles of complex reacted was quantitated using electronic absorption spectroscopy by monitoring the decrease in MLCT absorption maximum of each complex as a function of irradiation time (moles reacted/s) at early irradiation times, and Reinecke's salt was used as an actinometer to determine the intensity (Einstein/s) of the Xe arc lamp at the corresponding wavelengths. The Φ for the photoinduced ligand exchange of the second CH3CN ligand was measured for 12.1 using 400 nm and 550 nm irradiation wavelengths using the appropriate bandpass filters monitoring the decrease in the MLCT absorption peak of the mono-aqua intermediate, 12.4.

The conditions of data set [2]: reported, cited from earlier work.
The subject of another data set is BMM cells. Briefly: MTT cell viability, BMM cells. Type of data set: cell-based, murine. As to conditions: 1 nM-100 μM, light or dark, after 24 h. The procedure:
In order to gain more insight into the biological behavior of the caged inhibitor, effects of VI and its byproducts on cell viability in BMM cells were determined under light and dark conditions. BMM cells were treated with either VI or cis-[Ru(bpy)2(MeCN)2](PF6)2 as a control (1 nM-100 μM), incubated for 30 min, left in the dark or irradiated with a tungsten halogen lamp for 15 min and then washed, using the same protocol as the confocal microscopy studies shown in FIG. 15. After 24 h viabilities were determined using the MTT assay (FIG. 17).
(§1) FIG. 6. Cytotoxicity of cis-[Ru(bpy)2(2)2]Cl2 (3) and the control compound cis-[Ru(bpy)2(MeCN)2](PF6)2 on BMM cells (A-B) and prostate cancer PC3 cells (C-D). […] Cell viability was determined using the MTT assay after 24 h for BMM cells and 72 h for PC3 cells, and is reported relative to control with only buffer added. Error bars represent the standard deviations of triplicate wells, and data are representative of three independent experiments.

For the next data set, the target named is T1, papain (Carica papaya, UniProt P00784).
T1 sequence (P00784 134-345): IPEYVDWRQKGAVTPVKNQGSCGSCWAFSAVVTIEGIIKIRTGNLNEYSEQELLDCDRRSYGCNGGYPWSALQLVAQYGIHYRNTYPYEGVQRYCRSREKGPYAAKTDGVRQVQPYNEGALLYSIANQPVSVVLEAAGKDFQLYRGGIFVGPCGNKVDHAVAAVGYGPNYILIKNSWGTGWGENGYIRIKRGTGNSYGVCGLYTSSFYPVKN
Kind of data set: Papain inhibition, chromogenic substrate BAPNA, light vs dark. The data set is classed as biochemical. The procedure:
FIG. 5. […] Data points represent an average of three reactions and error bars are standard deviations.
Papain Inhibition Studies. The inhibition studies with papain were carried out following a modified procedure by Gütschow and coworkers (Löser et al., J. Med. Chem. 2005, 48, 7688-7707). […] A 0.25 mM papain stock solution was prepared in 0.1 mM HCl and kept frozen. For each experiment, the stock solution was diluted 250 times and activated for 45 min at 25° C. with a 0.1 M phosphate pH 6.5, 15 mM DTT and 2.5 mM EDTA buffer solution. A 10.0 mM solution of BAPNA in DMSO was prepared daily and plated (final concentration 1.0 mM). The inhibitor was plated as a 1% DMSO solution in the assay buffer.
The photolysis was conducted for 10 minutes (with gentle shaking of the plate every 2-3 minutes) using a 250 W tungsten halogen lamp (Osram Xenophot HLX) powered by a 24 V power supply. The irradiation wavelength was selected by placing a bandpass filter (395 nm cutoff) between the lamp and the sample, along with a 10 cm water cell to absorb infrared light. After photolysis, the reaction was initiated by addition of 65 μL of enzyme (final volume 100 μL, final enzyme concentration 0.65 μM). The absorbance changes due to the hydrolysis product p-nitroaniline (pNA) were measured at 405 nm every 2 min for 14 min (8 measures) at 25° C.

The subject of data set [3] is prostate cancer PC3 cells. Briefly: MTT cell viability, PC3 cells. Type of data set: cell-based. As to conditions: 1 nM-100 μM, light or dark, up to 72 h. Here is the method: as §1
These effects are highly dependent on the nature of ligands bound to ruthenium, and with some compounds treatment for up to 72 h is necessary to observe growth inhibitory effects. Later time points were not examined with BMM cells due to complications in maintaining these cells in culture over long periods of time, with or without VI.

The next data set has as its target T2, human cathepsin B (Homo sapiens, UniProt P07858).
T2 construct: Purified cathepsin B (human liver) was obtained from Enzo Life Sciences; purchased Enzo Life Sciences; host or cells: human liver (tissue-purified)
Kind of data set: Cathepsin B inhibition, Z-Arg-Arg-AMC, light vs dark. Type of data set: biochemical. As to conditions: without irradiation (dark); pH 6.0. From the text:
(§2) The irradiation wavelength was selected by placing a bandpass filter (395 nm cutoff) between the lamp and the sample, along with a 10 cm water cell to absorb infrared light.

The target in data set [4] is T3, human cathepsin B in hBMSC lysates (Homo sapiens, UniProt P07858).
T3 construct: lysates from primary human bone marrow stromal cells (hBMSC), an important source of cathepsin activity; endogenous in cells; host or cells: primary human bone marrow stromal cells (hBMSC), lysate
Kind of data set: Cathepsin B activity in hBMSC lysates, Z-Arg-Arg-AMC. The data set is classed as biochemical. As to conditions: hBMSC lysate, without irradiation (dark).
Description: as §2

Data set [5] addresses T4, human cathepsin K (Homo sapiens, UniProt P43235).
T4 sequence (P43235 115-329): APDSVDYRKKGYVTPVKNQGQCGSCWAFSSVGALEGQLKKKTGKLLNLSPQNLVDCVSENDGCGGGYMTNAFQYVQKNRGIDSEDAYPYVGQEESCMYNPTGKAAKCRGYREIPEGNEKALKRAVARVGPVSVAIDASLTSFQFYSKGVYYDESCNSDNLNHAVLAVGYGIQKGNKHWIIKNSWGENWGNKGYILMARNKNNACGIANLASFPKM
Briefly: Cathepsin K inhibition, Z-Gly-Pro-Arg-AMC, light vs dark. The data set is classed as biochemical. As to conditions: without irradiation (dark); pH 5.5. Here is the method: Cathepsins B, K and L were then examined for photoinduced inhibition with V. IC50 values for 1 and V (with and without irradiation) were determined in aqueous buffer at pH 5.5 for cathepsins L and K, and pH 6.0 for cathepsin B using fluorogenic substrates selective for each enzyme (Table 1). […] Control experiments show some level of inhibition by [Ru^II(bpy)2(MeCN)2](PF6)2, which may explain the lower ratios for dark vs. light conditions observed with cathepsins vs. papain.
The IC50 values represent the average from three independent experiments. […] Activities were determined with the fluorogenic substrates Z-Arg-Arg-AMC (cathepsin B), Z-Gly-Pro-Arg-AMC (cathepsin K) and Z-Phe-Arg-AMC (cathepsin L) (where AMC is aminomethylcoumarin). […]
Cathepsin Inhibition Studies. Cathepsin enzyme activity was determined from kinetic measurements performed by fluorometric detection of the hydrolysis product aminomethylcoumarin (AMC) at 37° C. every 2 min for 14 min (8 measures). […]
The photolysis was conducted for 10 minutes (with gentle shaking of the plate every 2-3 min) using a 250 W tungsten halogen lamp (Osram Xenophot HLX) powered by a 24 V power supply. […] Cathepsin enzyme activity was determined from kinetic measurements performed by fluorometric detection of the hydrolysis product AMC at 37° C. every 2 min for 14 min (8 measures) and MAX RFU slope values used for plotting (FIG. 7).

The next data set deals with T5, human cathepsin L (Homo sapiens, UniProt P07711).
T5 construct: purchased Sigma
T5 sequence (P07711 114-333): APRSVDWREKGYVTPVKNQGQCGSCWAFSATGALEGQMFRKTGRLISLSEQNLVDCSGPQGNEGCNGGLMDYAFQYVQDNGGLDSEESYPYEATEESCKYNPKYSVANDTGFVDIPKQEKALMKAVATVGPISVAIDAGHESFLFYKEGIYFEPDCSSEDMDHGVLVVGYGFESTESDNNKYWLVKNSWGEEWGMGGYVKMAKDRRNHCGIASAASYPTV
Kind of data set: Cathepsin L inhibition, Z-Phe-Arg-AMC, light vs dark. Type of data set: biochemical. As to conditions: without irradiation (dark); pH 5.5.
Description: as §2

Data set [6] deals with T6, human cathepsin B in DU145 lysates (Homo sapiens, UniProt P07858).
T6 construct: endogenous in cells; host or cells: DU145 prostate carcinoma cells (ATCC), lysate
Kind of data set: Cathepsin B activity in DU145 lysates, Z-Arg-Arg-AMC. The data set is classed as biochemical. As to conditions: DU145 lysate, without irradiation (dark).
Description: as §2

In data set [7] the target is T4, human cathepsin K. Kind of data set: Cathepsin K inhibition by the Ru(TPA)-caged inhibitor, 365 nm light (Example 10). The data set is classed as biochemical. As to conditions: 500 μM, highest concentration surveyed, light and dark. The procedure: Complex 10.2 acts as a potent, photoactivated inhibitor of human cathepsin K. IC50 values were determined for 10.2 and 10.3 under dark conditions, and upon irradiation with 365 nm light (FIG. 20).

Data set [8] in a line: Dark controls: ligand exchange in the absence of light. The data set is classed as physicochemical. As to conditions: H2O, room temperature (˜22° C.). The procedure: FIG. 23. Dark Control with respect to FIG. 22 showing that the nitrile ligands are not released under similar conditions in the absence of light for a period of 24 hours.
Photochemistry. The photoreactivity of 12.1-12.3 was evaluated by monitoring the changes to the electronic absorption and ^1H NMR spectra as a function of irradiation time. […] Complexes 12.1-12.3 are inert to ligand substitution in the dark at room temperature under similar experimental conditions. For the symmetrical complexes 12.2 and 12.3, one resonance is observed in CD3CN corresponding to the methyl protons of both bound acetonitrile ligands at 2.22 ppm and 2.28 ppm, respectively. During the photolysis of 12.2 in CD3CN with λirr≧455 nm, the resonance at 2.22 ppm decreases with increasing irradiation time, while a peak at 1.96 ppm corresponding to free CH3CN in CD3CN increases in intensity at the same rate. The photolysis of 12.3 in CD3CN with λirr≧610 nm yields similar results with the decrease of the peak at 2.28 ppm with the concomitant increase of the free CH3CN resonance at 1.96 ppm. The intensity of the peak corresponding to free CH3CN at 1.96 ppm integrates to two ligands at the end of the photolysis for both 12.2 and 12.3 in CD3CN, indicative that that both CH3CN ligands in 12.2 and 12.3 are exchanged. […] Moreover, no shifts are observed in the aromatic region as the reaction progresses. […]

Some results are limits rather than exact numbers.

In the case of `CC#N.CC#N.F[P-](F)(F)(F)(F)F.F[P-](F)(F)(F)(F)F.[Ru+2].c1cnc2c(c1)ccc1cccnc12.c1cnc2c(c1)ccc1cccnc12` [12.2, [Ru(phen)2(CH3CN)2](PF6)2], the “quantum yield, first CH3CN ligand exchange (Φ400)” value in data set [1] (400 nm irradiation) is on record as 0.22(1).
For `CC#N.CC#N.F[P-](F)(F)(F)(F)F.F[P-](F)(F)(F)(F)F.[Ru+2].c1ccc2nc(-c3ccc4ccccc4n3)ccc2c1.c1ccc2nc(-c3ccc4ccccc4n3)ccc2c1` [12.3, [Ru(biq)2(CH3CN)2](PF6)2], the “quantum yield, first CH3CN ligand exchange (Φ500)” value in data set [1] was 0.24(1). Also, in data set [1] (550 nm irradiation), the “quantum yield, first CH3CN ligand exchange (Φ550)” value is on record as 0.150(8).
Regarding `N#Cc1c[nH]c(=O)[nH]c1=O.N#Cc1c[nH]c(=O)[nH]c1=O.[Cl-].[Cl-].[Ru+2].c1ccc(-c2ccccn2)nc1.c1ccc(-c2ccccn2)nc1` [cis-[Ru(bpy)2(5-cyanouracil)2]Cl2], the “quantum yield for formation of the mono-aqua species (ΦR→I)” value in data set [2] was 0.16(4).
In general, IC50 refers to the midpoint of a concentration-inhibition curve. Regarding `CC#N.CC#N.F[P-](F)(F)(F)(F)F.F[P-](F)(F)(F)(F)F.[Ru+2].c1ccc(-c2ccccn2)nc1.c1ccc(-c2ccccn2)nc1` [cis-[Ru(bpy)2(MeCN)2](PF6)2, reference compound], the “cell viability (MTT)” value in the data set on BMM cells was “no effects on viability”. On papain (control complex, same profile under light and dark conditions), this compound yielded a 50% inhibitory concentration (IC50) of more than 500 µM. In data set [3], the “growth inhibitory effects (MTT)” value is given as “not observed”.
Take `CC#N.CC#N.[Cl-].[Cl-].[Ru+2].c1ccc(-c2ccccn2)nc1.c1ccc(-c2ccccn2)nc1` [cis-[Ru(bpy)2(MeCN)2]Cl2]: in [2] (λirr=400 nm), the “overall photoaquation quantum yield (ΦR→P)” value is 0.21.
On to `CC(=O)N[C@@H](Cc1ccccc1)C(=O)NCC#N` [compound 1, (S)-2-Acetamido-N-(cyanomethyl)-3-phenylpropanamide], for which the IC50 against human cathepsin B was determined as 133 µM; in data set [4], 183 µM; against human cathepsin K [5], 12 µM; at human cathepsin L, 72 µM; in data set [6], 182 µM; against papain (without irradiation, phosphate buffer pH 6.5, enzyme 650 nM), 0.638 µM.
Consider [Ru(TPA)(CH3CN)2](PF6)2 [10.1], for which the “inhibition of cathepsin K” value at human cathepsin K [7] is recorded as “no inhibition”.
As to [Ru(biq)(phen)(CH3CN)2](PF6)2 [12.1], the “quantum yield, first CH3CN ligand exchange (Φ500)” value in data set [1] is 0.26(1). The “quantum yield, first CH3CN ligand exchange (Φ550)” value in data set [1] (550 nm irradiation) is listed as 0.140(5).
With “cis-[Ru(bpy)(biq)(CH3CN)(H2O)]^2+ [12.4]”, the “quantum yield, exchange of the remaining CH3CN ligand (Φ400)” value in [1] (400 nm irradiation, to the bis-aqua complex 12.5) is reported as 0.0045(1). Further, the “quantum yield, exchange of the remaining CH3CN ligand (Φ550)” value in [1] (550 nm irradiation, to the bis-aqua complex 12.5) is listed as 0.0014(5). The “stability in the dark” value in data set [8] is recorded as “stable in the dark for up to 6 hours”.
